Legend:
[1] = system: collagen-induced Th17 rheumatoid arthritis-like inflammation; assay: Collagen-induced arthritis (CIA); format: in vivo, mice (DBA-1 strain); settings: i.p. 1 mg/kg daily for 10 days (T0 to T10); 1 mg/kg
Method: Mice were treated with collagen to induce a Th17 rheumatoid arthritis-like inflammation as described by Inglis et al. (2007. Arthritis Res Ther. 9(5):R113) and Geboes et al. (2009. Arthritis Rheum. 60(2):390-5).
Male mice (DBA-1 strain) were subcutaneously-injected with 100 μg collagen per mouse on D0. The hind paw thickness at the ankle level was regularly measured with a caliper. When the ankle thickness had reached around 4 mm (T0, i.e., 30 to 50 days after the collagen injection on D0), mice were daily intraperitoneally-injected for 10 days (T0 to T10) with either vehicle (NaCl 0.9%), Dex, CpdX, CpdX(eA), CpdX(eB), CpdX-D3, CpdX-D3(eA) or CpdX-D3(eB) (1 mg/kg body weight diluted in NaCl 0.9%), and the hind paw thickness at the ankle level was daily measured with a caliper. Pictures of the hind paws were taken at days T0 and T10 (before and after the treatment with either Vehicle, Dex, CpdX, CpdX(eA), CpdX(eB), CpdX-D3, CpdX-D3(eA) or CpdX-D3(eB)), in order to assess the course of swelling.
RNA transcripts were extracted from whole hind paws of collagen-untreated and collagen-treated mice at T0 and T10. IL-1β, IL-6, IL-17a, IL-17f and TNFα transcripts were analyzed by q-RT-PCR.

[2] = Blood glucose and intraperitoneal glucose tolerance test (IPGTT) after three-month treatment; format: in vivo, B6 male mice; settings: three months; glucose i.p. injection
Method: B6 male mice (8-week-old) were daily subjected for three months to a subcutaneous injection of either vehicle (NaCl 0.9%), Dex, CpdX, CpdX(eA), CpdX(eB), CpdX-D3, CpdX-D3(eA) or CpdX-D3(eB) (1 mg/kg body weight, diluted in vehicle). Mice were over-night-fasted. Mouse blood glucose concentration was measured before (To) and during two hours (T120) after glucose i.p. injection ([…]).

[3] = system: dorsal skin of Balb/C mice; assay: Skin epidermis atrophy after 8-day topical treatment of dorsal skin; format: in vivo; settings: eight-day topical treatment
Excerpt: To investigate whether, similarly to Dex, a topical administration of CpdX could result in a skin atrophy, Balb/C mice were shaved on the dorsal skin. Ethanol (vehicle), Dex, CpdX or either one of its two enantiomers CpdX(eA) or CpdX(eB), as well as the deuterated form CpdX-D3 or either one of its two enantiomers CpdX-D3(eA) or CpdX-D3(eB), were topically applied onto the dorsal skin for 8 days.
Upon completion of the treatments, RNA transcripts were extracted from dorsal skin samples and the transcripts of Kindlin-1 and REDD1 genes were analyzed by q-RT-PCR. Histological and morphometric analyses of the dorsal skin were also performed.

[4] = system: OVA-induced allergic conjunctivitis; assay: Ovalbumin (OVA)-induced allergic conjunctivitis; format: in vivo, Balb/C mice; settings: 0.1% instillation D22 to D24, 20 minutes after the last OVA challenge
Method: To investigate the anti-inflammatory effect of CpdX or CpdX-D3 on an allergic conjunctivitis, Balb/C mice were intraperitoneally sensitized with 50 μg OVA with alum on both days D1 and D8, and then challenged from D15 to D21 with 250 μg OVA in 5 μL of sterilized vehicle (0.9% NaCl), which were directly instilled onto the conjunctival sac. From D22 to D24, mice were divided into several groups, and received instillations with either OVA alone, OVA together with 0.1% of either Dex, CpdX, CpdX(eA), CpdX(eB), CpdX-D3, CpdX-D3(eA) or CpdX-D3(eB).
The clinical appearance of mouse eyes was evaluated 20 minutes after the last instillation on D24. Clinical signs (conjunctival hyperemia, lid edema and tearing) were scored to evaluate the occurrence and severity of conjunctivitis as described by Gimenes et al. (2015. Experimental Eye Research 134:24-32). Parameters were graded on a scale ranging from 0 to 3, (0=absence, 1=mild, 2=moderate, and 3=severe symptoms), each animal receiving a total clinical score ranging from 0 to 9. The data were expressed as mean±SEM with at least four mice per treatment.

adrenal glands = assay: Corticosterone synthesis and adrenal gland after three-month treatment; format: in vivo, B6 male mice; settings: three months; for cortex layers, most notably the fasciculata zone, of the adrenal glands (histology) / transcripts of Cyp11a, Cyp11b1 and HSD3β genes in adrenal glands (corticosterone synthesis pathway): s.c. 1 mg/kg daily; for transcripts of Cyp11a, Cyp11b1 and HSD3β genes in adrenal glands (corticosterone synthesis pathway): q-RT-PCR; for plasmatic corticosterone level at 10 a.m.: vs Vehicle
Method: (§1) B6 male mice (8-week-old) were daily subjected for three months to either a subcutaneous injection of vehicle (NaCl 0.9%), Dex, CpdX, CpdX(eA), CpdX(eB), CpdX-D3, CpdX-D3(eA) or CpdX-D3(eB) (1 mg/kg body weight, diluted in vehicle).
Following this long-term treatment, blood was collected at 10 a.m. and 6 p.m. by retro-orbital puncture in lithium-heparin coated vials, and the plasmatic level of corticosterone was determined. Adrenal glands were harvested and weighted. RNA transcripts were extracted and transcripts of the Cyp11a, Cyp11b1, Cyp11b2 and HSD3β genes were analyzed by q-RT-PCR. Histological analyses of the adrenal glands were also carried out.

[5] = system: thymus, spleen, adrenal gland and kidney; assay: Organ weights (thymus, spleen, adrenal gland, kidney) after three-month treatment; format: in vivo, B6 male mice; settings: s.c. 1 mg/kg daily, three months
Method: as §1, with “to” for “to either”, “of either” for “of”, “vehicle). Following these treatments, four organs (thymus, spleen, adrenal gland and kidney) were harvested and weighted.” for “vehicle).”

[6] = system: DSS-induced Th17 ulcerative colitis; assay: Dextran sodium sulfate (DSS)-induced ulcerative colitis; format: in vivo, Balb/C mice; settings: for pro-inflammatory genes overexpressed in DSS-induced ulcerative colitis (IL-1β, IL-6, IL-17a, IL-17f, TSLP, MMP13): colon, q-RT-PCR, D14; for colonic villus/crypt structure (histology) / mucosal and submucosal cell infiltration (histology): i.p. 1 mg/kg on D11, D12, D13, 3% DSS 13 days
Method: To investigate the anti-inflammatory activity of CpdX and CpdX-D3 on a Th17 ulcerative colitis, Balb/C mice were treated with 3% DSS in drinking water for 13 days, with or without an intraperitoneal administration of either Dex, CpdX, CpdX(eA), CpdX(eB), CpdX-D3, CpdX-D3(eA) or CpdX-D3(eB) (1 mg/kg of body weight) on D11, D12 and D13.
At D14, RNA transcripts were extracted from mouse colons. IL-1β, IL-6, IL-17a, IL-17f, TSLP and MMP13 transcripts were analyzed by q-RT-PCR. Colon samples were also harvested for histological analyses (with H&E staining).

epidermal thickness (morphometric analyses) [3] | cortex layers, most notably the fasciculata zone, of the adrenal glands (histology) (adrenal glands) | transcripts of Cyp11a, Cyp11b1 and HSD3β genes in adrenal glands (corticosterone synthesis pathway) (adrenal glands) | plasmatic corticosterone level at 10 a.m. (adrenal glands) | Compound | hind paw thickness at the ankle level [1] | blood glucose level during two-hour IPGTT [2] | clinical signs of allergic conjunctivitis (conjunctival hyperemia, lid edema and tearing) [4] | thymus apoptosis (thymus weight) [5] | pro-inflammatory genes overexpressed in DSS-induced ulcerative colitis (IL-1β, IL-6, IL-17a, IL-17f, TSLP, MMP13) [6] | colonic villus/crypt structure (histology) [6] | mucosal and submucosal cell infiltration (histology) [6]
not significantly decreased | markedly increased | increased | much higher | COc1ccc(F)cc1C(C)(C)CC(O)(CNc1ccc2c(c1)COC2=O)C(F)(F)F (single isomer, unassigned; enantiomer b) [CpdX(eB), 5-[4-(5-fluoro-2-methoxyphenyl)-2-hydroxy-4-methyl-2-(trifluoromethyl)-pentylamino]isobenzofuran-1(3H)-one enantiomer B] | no such decrease | no significant difference | considerably reduced | did not result in any significant thymus apoptosis | similarly repressed | almost reestablished | significantly decreased
not significantly decreased | markedly increased | increased | much higher | [2H]C([2H])([2H])Oc1ccc(F)cc1C(C)(C)CC(O)(CNc1ccc2c(c1)COC2=O)C(F)(F)F (single isomer, unassigned; enantiomer b) [CpdX-D3(eB), 5-{4-[2-(methoxy-D3)-5-fluorophenyl]-2-hydroxy-4-methyl-2-(trifluoromethyl)pentylamino}isobenzofuran-1(3H)-one enantiomer B] | no such decrease | no significant difference | considerably reduced | did not result in any significant thymus apoptosis | similarly repressed | almost reestablished | significantly decreased
